Assay results: patent publication US8329908B2, “Dual action antibiotics” (Morphochem Aktiengesellschaft fur Kombinatorische Chemie, priority 2001, dated 2012)

Key:
S. aureus (MRSA) = experiment: MIC against S. aureus (MRSA); assay type: cell-based
Protocol: (§1) All examples were tested against several gram positive and gram negative bacteria. They all have a broader and more pronounced activity than the corresponding quinolone and oxazolidinone as well as a 1+1 combination of these two compounds.

S. aureus (MSSA) = experiment: MIC against S. aureus (MSSA); assay type: cell-based
Protocol: as §1

E. faecalis = experiment: MIC against E. faecalis; assay type: cell-based
Protocol: as §1

E. faecium = experiment: MIC against E. faecium; assay type: cell-based
Protocol: as §1

S. pneumoniae = experiment: MIC against S. pneumoniae; assay type: cell-based
Protocol: as §1

melting point	Typical MIC range (S. aureus (MRSA))	Typical MIC range (S. aureus (MSSA))	Typical MIC range (E. faecalis)	Typical MIC range (E. faecium)	Typical MIC range (S. pneumoniae)	Compound
315 to 320 °C (dec.)						CC(=O)NC[C@H]1CN(c2ccc(N3CCN(c4cc5c(cc4F)c(=O)c(C(=O)O)cn5C4CC4)CC3)c(F)c2)C(=O)O1 (stereo in doubt) [Example 1, 7-(4-{4-[5-(acetylamino-methyl)-2-oxo-oxazolidin-3-yl]-2-fluoro-phenyl}-piperazin-1-yl)-1-cyclopropyl-6-fluoro-4-oxo-1,4-dihydro-quinoline-3-carboxylic acid]
258 °C (dec.)						CC(=O)NC[C@H]1CN(c2ccc(N3CCN(c4c(F)cc5c(=O)c(C(=O)O)cn6c5c4OCC6C)CC3)c(F)c2)C(=O)O1 (stereo partly drawn) [Example 2, 9-(4-{4-[5-(acetylamino-methyl)-2-oxo-oxazolidin-3-yl]-2-fluoro-phenyl}-piperazin-1-yl)-8-fluoro-3-methyl-6-oxo-2,3-dihydro-6H-1-oxa-3a-aza-phenalene-5-carboxylic acid]
	0.5 to 32 µg/mL	0.125 to 1 µg/mL	0.5 to 32 µg/mL	0.25 to 32 µg/mL	1 to 4 µg/mL	O=C(O)c1cn(C2CC2)c2cc(N3CCNCC3)c(F)cc2c1=O [ciprofloxacin]
	1 to 2 µg/mL	1 to 2 µg/mL	0.5 to 2 µg/mL	1 to 2 µg/mL	0.125 to 1 µg/mL	CC(=O)NC[C@H]1CN(c2ccc(N3CCOCC3)c(F)c2)C(=O)O1 [linezolid]
